target: T1, N-terminal His6-tagged recombinant full-length human Lck (Homo sapiens, UniProt P06239); assay: Lck IMAP assay; format: biochemical; conditions: ATP 6 μM (KM,ATP), enzyme pre-incubated with compounds for 60 minutes, values given as bins
T1 construct: N-terminal His6-tagged recombinant full-length human Lck; His6 (N); purchased Millipore
From the text: Inhibition of kinase activity can be measured using the Immobilized Metal Assay for Phosphochemicals (IMAP) assay. IMAP is a homogeneous fluorescence polarization (FP) assay based on affinity capture of phosphorylated peptide substrates. IMAP uses fluorescein-labeled peptide substrates that, upon phosphorylation by a protein kinase, bind to so-called IMAP nanoparticles, which are derivatized with trivalent metal complexes. Binding causes a change in the rate of the molecular motion of the peptide, and results in an increase in the FP value observed for the fluorescein label attached to the substrate peptide (Gaudet et al. A homogeneous fluorescence polarization assay adaptable for a range of protein serine/threonine and tyrosine kinases. J. Biomol. Screen (2003) 8, 164-175).
Enzyme used was N-terminal His6-tagged recombinant full-length human Lck from Millipore. Phosphorylation substrate was a fluorescein-labeled peptide (5FAM-KVEKIGEGTYGVV—NH2) derived from p34cdc2 from Molecular Devices. Enzymes, substrate and ATP were diluted in Kinase Reaction buffer (10 mM Tris-HCl, 10 mM MgCl2, 0.01% Tween-20, 0.05% NaN3 pH 7.2, 1 mM DTT (dithiotreitol). The final volume at the kinase reaction step of the assay in the 384-well plate was 20 μl. Final amount of enzyme in the reaction was 0.1 U/ml. Enzyme was pre-incubated with compounds diluted in 1% DMSO (dimethylsulfoxide) for 60 minutes at room temperature in the dark. Subsequently, peptide substrate to a final concentration of 100 nM, and ATP to a final concentration of 6 μM were added and the mix was incubated for 120 minutes at room temperature in the dark. IMAP progressive binding buffer (75% 1× buffer A, 25% 1× buffer B with 1:600 Progressive Binding Reagent; Molecular Devices) was added, followed by an incubation step of 60 minutes at room temperature in the dark. Finally, the FP signal was read on an Envision Multilabel reader (Perkin Elmer).
All biochemical assays were run at KM,ATP of the enzyme using non-saturated conditions, meaning that during the incubation time it was assured that the signal increase was linear with time. For all biochemical assays a reference standard was used on each plate.
Ten point serial dilutions using a √10 dilution factor were used for dose response testing of compounds. Starting concentration was 10^-6M for Lck IMAP assays. Dose-response curves were run as two experiments on duplicate plates (N=1; n=2). All data was normalized to percentage effect based on maximum (Max) and minimum (Min) control values. On every 384 assay plate 16 wells were used as minimum wells (wells with ATP, 0% effect) and 16 wells were used as maximum wells (wells without ATP, 100% effect). 16 wells were used for measuring the background signal, obtained from a kinase reaction containing all constituents except the labeled peptide substrate. Percentage effect was plotted against log dilution concentration of compound to obtain sigmoid dose response curves. pIC50 values were calculated using ActivityBase.

T1 sequence (P06239 whole entry): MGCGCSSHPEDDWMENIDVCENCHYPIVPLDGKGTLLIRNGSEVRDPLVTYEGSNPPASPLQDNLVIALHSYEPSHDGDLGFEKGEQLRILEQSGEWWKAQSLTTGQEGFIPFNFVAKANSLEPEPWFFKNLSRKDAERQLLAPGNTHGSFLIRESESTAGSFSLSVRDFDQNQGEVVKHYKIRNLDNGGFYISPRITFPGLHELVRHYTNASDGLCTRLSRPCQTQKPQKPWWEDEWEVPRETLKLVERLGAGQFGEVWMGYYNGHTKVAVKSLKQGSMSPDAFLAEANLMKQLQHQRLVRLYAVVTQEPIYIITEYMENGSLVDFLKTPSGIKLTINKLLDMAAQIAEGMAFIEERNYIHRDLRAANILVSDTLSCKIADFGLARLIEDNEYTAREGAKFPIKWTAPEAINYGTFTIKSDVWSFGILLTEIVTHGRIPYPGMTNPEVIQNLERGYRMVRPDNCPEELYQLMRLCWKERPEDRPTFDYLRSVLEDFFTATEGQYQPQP

Structure (SMILES) | IC50
COc1cc(-c2nc(N3CCN(C)CC3)n3ccnc(C)c23)ccc1NC(=O)c1cc2ccccc2n1C [Example 23, N-(2-methoxy-4-(8-methyl-3-(4-methylpiperazin-1-yl)imidazo[1,5-a]pyrazin-1-yl)phenyl)-1-methyl-1H-indole-2-carboxamide] | ≤ 10 nM
COc1cc(-c2nc(N3CCOCC3)n3ccnc(C)c23)ccc1NC(=O)c1cc2ccccc2n1C [Example 24, N-(2-methoxy-4-(8-methyl-3-(morholin-4-yl)imidazo[1,5-a]pyrazin-1-yl)phenyl)-1-methyl-1H-indole-2-carboxamide] | ≤ 10 nM
COc1cc(-c2nc(N3CCC(N4CCOCC4)CC3)n3ccnc(C)c23)ccc1NC(=O)OC(C)C [Example 25, Isopropyl 2-methoxy-4-(8-methyl-3-(4-morpholinopiperidin-1-yl)imidazo[1,5-a]pyrazin-1-yl)phenylcarbamate] | 10 to 100 nM
CCC[C@H](C)OC(=O)Nc1ccc(-c2nc([C@H]3CC[C@H](N(C)CCOC)CC3)n3ccnc(C)c23)cc1OC [Example 26a, (S)-pentan-2-yl 2-methoxy-4-(3-((trans)-4-((2-methoxyethyl)(methyl)amino)cyclohexyl)-8-methylimidazo[1,5-a]pyrazin-1-yl)phenylcarbamate] | ≤ 10 nM
COc1cc(-c2nc([C@H]3CC[C@H](N(C)C)CC3)n3ccnc(C)c23)ccc1NC(=O)c1cc2c(OC)cccc2n1C [Example 26b, N-(4-(3-((trans)-4-(dimethylamino)cyclohexyl)-8-methylimidazo[1,5-a]pyrazin-1-yl)-2-methoxyphenyl)-4-methoxy-1-methyl-1H-indole-2-carboxamide] | ≤ 10 nM
COCCN(C)[C@H]1CC[C@@H](c2nc(-c3ccc(NC(=O)c4cc5c(OC)cccc5n4C)c(OC)c3)c3c(C)nccn32)CC1 [Example 26c, 4-methoxy-N-(2-methoxy-4-(3-((cis)-4-((2-methoxyethyl)(methyl)amino)cyclo-hexyl)-8-methylimidazo[1,5-a]pyrazin-1-yl)phenyl)-1-methyl-1H-indole-2-carboxamide] | ≤ 10 nM
COc1cc(-c2nc([C@H]3CC[C@@H](N4CCOCC4)CC3)n3ccnc(C)c23)ccc1NC(=O)c1cc2c(OC)cccc2n1C [Example 26d, 4-methoxy-N-(2-methoxy-4-(8-methyl-3-((cis)-4-morpholinocyclohexyl)imidazo[1,5-a]pyrazin-1-yl)phenyl)-1-methyl-1H-indole-2-carboxamide] | ≤ 10 nM
COc1cc(-c2nc([C@H]3CC[C@@H](N(C)C)CC3)n3ccnc(C)c23)ccc1NC(=O)c1cc2c(OC)cccc2n1C [Example 26e, N-(4-(3-((cis)-4-(dimethylamino)cyclohexyl)-8-methylimidazo[1,5-a]pyrazin-1-yl)-2-methoxyphenyl)-4-methoxy-1-methyl-1H-indole-2-carboxamide] | ≤ 10 nM
CCC[C@H](C)OC(=O)Nc1ccc(-c2nc([C@H]3CC[C@@H](N4CCN(C(C)=O)CC4)CC3)n3ccnc(C)c23)cc1OC [Example 26f, (S)-pentan-2-yl 4-(3-((cis)-4-(4-acetylpiperazin-1-yl)cyclohexyl)-8-methylimidazo[1,5-a]pyrazin-1-yl)-2-methoxyphenylcarbamate] | ≤ 10 nM
CCC[C@H](C)OC(=O)Nc1ccc(-c2nc([C@H]3CC[C@@H](N4CC(F)(F)C4)CC3)n3ccnc(C)c23)cc1OC [Example 26g, (S)-pentan-2-yl 4-(3-((cis)-4-(3,3-difluoroazetidin-1-yl)cyclohexyl)-8-methylimidazo[1,5-a]pyrazin-1-yl)-2-methoxyphenylcarbamate] | ≤ 10 nM
CCC[C@H](C)OC(=O)Nc1ccc(-c2nc([C@H]3C[C@H](N4CCN(C)CC4)C3)n3ccnc(C)c23)cc1OC [Example 27, (S)-Pentan-2-yl 2-methoxy-4-(8-methyl-3-((1r,3r)-3-(4-methylpiperazin-1-yl)cyclobutyl)imidazo[1,5-a]pyrazin-1-yl)phenylcarbamate] | ≤ 10 nM
CCC[C@H](C)OC(=O)Nc1ccc(-c2nc([C@H]3CC[C@H](N(CCOC)C(C)=O)CC3)n3ccnc(C)c23)cc1OC [Example 29, (S)-Pentan-2-yl 2-methoxy-4-(3-((trans)-4-(N-(2-methoxyethyl)acetamido)cyclohexyl)-8-methylimidazo[1,5-a]pyrazin-1-yl)phenylcarbamate] | ≤ 10 nM
COc1cc(-c2nc(C3CCN(C4CCOCC4)CC3)n3ccnc(C)c23)ccc1NC(=O)c1cc2c(OC)cccc2n1C [Example 30, 4-Methoxy-N-(2-methoxy-4-(8-methyl-3-(1-(tetrahydro-2H-pyran-4-yl)piperidin-4-yl)imidazo[1,5-a]pyrazin-1-yl)phenyl)-1-methyl-1H-indole-2-carboxamide] | ≤ 10 nM
CCC[C@H](C)OC(=O)Nc1ccc(-c2nc(N3CCN(C(C)=O)CC3)n3ccnc(C)c23)cc1OC [Example 31, (S)-Pentan-2-yl 4-(3-(4-acetylpiperazin-1-yl)-8-methylimidazo[1,5-a]pyrazin-1-yl)-2-methoxyphenylcarbamate] | ≤ 10 nM
COc1cc(-c2nc(N3CCN(C4CCN(C(C)=O)CC4)CC3)n3ccnc(C)c23)ccc1NC(=O)c1cc2c(OC)cccc2n1C [Example 32, N-(4-(3-(4-(1-Acetylpiperidin-4-yl)piperazin-1-yl)-8-methylimidazo[1,5-a]pyrazin-1-yl)-2-methoxyphenyl)-4-methoxy-1-methyl-1H-indole-2-carboxamide] | ≤ 10 nM
CCC[C@H](C)OC(=O)Nc1ccc(-c2nc([C@H]3CC[C@H](N4CCN(C)CC4)CC3)n3ccnc(C)c23)cc1OC [Example 33a, (S)-pentan-2-yl 2-methoxy-4-(8-methyl-3-((trans)-4-(4-methylpiperazin-1-yl)cyclohexyl)imidazo[1,5-a]pyrazin-1-yl)phenylcarbamate] | ≤ 10 nM
COc1cc(-c2nc([C@H]3CC[C@H](N4CCN(C)CC4)CC3)n3ccnc(C)c23)ccc1NC(=O)c1cc2ccccc2n1C [Example 33b, N-(2-methoxy-4-(8-methyl-3-((trans)-4-(4-methylpiperazin-1-yl)cyclohexyl)imidazo[1,5-a]pyrazin-1-yl)phenyl)-1-methyl-1H-indole-2-carboxamide 2,2,2-trifluoroacetate] | ≤ 10 nM
COc1cc(-c2nc([C@H]3CC[C@H](N4CCN(C(C)=O)CC4)CC3)n3ccnc(C)c23)ccc1NC(=O)c1cc2ccccc2n1C [Example 33c, N-(4-(3-((trans)-4-(4-acetylpiperazin-1-yl)cyclohexyl)-8-methylimidazo[1,5-a]pyrazin-1-yl)-2-methoxyphenyl)-1-methyl-1H-indole-2-carboxamide] | ≤ 10 nM
CCC[C@H](C)OC(=O)Nc1ccc(-c2nc([C@H]3CC[C@H](N4CCN(C(C)=O)CC4)CC3)n3ccnc(C)c23)cc1OC [Example 33d, (S)-pentan-2-yl 4-(3-((trans)-4-(4-acetylpiperazin-1-yl)cyclohexyl)-8-methylimidazo[1,5-a]pyrazin-1-yl)-2-methoxyphenylcarbamate] | ≤ 10 nM
COc1cc(-c2nc([C@@H]3CCN(C(=O)CN(C)C)C3)n3ccnc(C)c23)ccc1NC(=O)c1cc2c(OC)cccc2n1C [Example 33e, (R)—N-(4-(3-(1-(2-(dimethylamino)acetyl)pyrrolidin-3-yl)-8-methylimidazo[1,5-a]pyrazin-1-yl)-2-methoxyphenyl)-4-methoxy-1-methyl-1H-indole-2-carboxamide] | ≤ 10 nM
CCC[C@H](C)OC(=O)Nc1ccc(-c2nc([C@H]3CC[C@@H](N4CCN(C)CC4)CC3)n3ccnc(C)c23)cc1OC [Example 33f, (S)-pentan-2-yl 2-methoxy-4-(8-methyl-3-((cis)-4-(4-methylpiperazin-1-yl)cyclohexyl)imidazo[1,5-a]pyrazin-1-yl)phenylcarbamate] | ≤ 10 nM
COc1cc(-c2nc(N3CCN(C(C)=O)CC3)n3ccnc(C)c23)ccc1NC(=O)c1cc2c(OC)cccc2n1C [Example 33g, N-(4-(3-(4-acetylpiperazin-1-yl)-8-methylimidazo[1,5-a]pyrazin-1-yl)-2-methoxyphenyl)-4-methoxy-1-methyl-1H-indole-2-carboxamide] | 10 to 100 nM

From patent US8658794B2, “8-methyl-1-phenyl-imidazol[1,5-a]pyrazine compounds as Lck inhibitors and uses thereof” (Merck Sharp & Dohme B.V., priority 2010, dated 2014)
